These results are taken from patent US20250121046A1, “MRNA THERAPEUTIC COMPOSITIONS” (Nutcracker Therapeutics, Inc., priority 2022, published 2025).

A short description of data set [1]: Mouse efficacy studies, tolerability assessments (Example 8). The format is in vivo.
A short description of data set [2]: Rat toxicology study, control mRNA in DV-140-F2 intramuscular (Example 8). Format: in vivo, Sprague-Dawley rats. The protocol:
Briefly, Sprague-Dawley rats (n=8) were treated with a control mRNA formulated in DV-140-F2 at 0.03 or 0.3 mg/kg or PBS vehicle. Injections were done 4 times over the course of 13 days and were administered intramuscularly into the hind limb. Whole blood was taken for hematology, and serum taken for clinical chemistry and cytokine analysis at 6 hours post the first dose and final dose, and 2 weeks post the final dose. Additionally, 2 of the animals were sacrificed at 6 hours post the final dose and 2 weeks post final dose and a gross necropsy was performed. Tissue samples were retained and histopathology run on select organs.

Experiment in data set [3]: as above
The format is in vivo, Sprague-Dawley rats. Particulars: Therapeutic dose scaled for rat: 4 doses in 2 weeks, 30 μg RNA IM.

Data set [4] has as its system HEK cells. The experiment in a line: Surface expression of LIGHT on transfected cells by flow cytometry using HVEM binding. The format is cell-based, human. As to conditions: compared to soluble (wild type) LIGHT. The source says: FIG. 2A-2D are graphs illustrating the membrane-bound protein produced by the membrane-stabilized LIGHT generated according to an aspect of this disclosure as compared to soluble LIGHT.
FIGS. 14A and 14B depict the assessment of surface expression of soluble LIGHT or membrane-stabilized LIGHT by flow cytometry using HVEM binding.
This enhanced membrane stability for the disclosed membrane-stabilized LIGHT may increase the beneficial activity of LIGHT.
(§1) LIGHT variants were formulated in MessengerMax mRNA Transfection Reagent. Human embryonic kidney (HEK) cells were transfected with the LIGHT variant constructs for cell surface expression of LIGHT. CellTrace Violet (Thermo Fischer Scientific) was used to label CD3+ T cells from the resulting peripheral blood mononuclear cells (PBMC). 100 ng/mL of soluble CD3 Antibody was added to the resulting labeled CD3+ T cells. The T cell proliferation and interferon-gamma (IFN-7) secretion was evaluated about 5 days of co-culture.

The subject of data set [5] is CD3+ T cells. The experiment in a line: T cell proliferation in co-culture with LIGHT-transfected HEK cells (Example 1). Particulars: versus soluble (Wt) LIGHT. The format is cell-based, human. The procedure: as §1
Data set [6] relates to primary human T cells. Kind of data set: Human T cell proliferation, ENG or WT hLIGHT mRNA with hIL-12 mRNA (Example 1A). Format: cell-based. Particulars: anti-CD3 30 or 100 ng/mL, 4 days, relative to IL-12 and WT hLIGHT. The procedure: This study was designed to compare the ability of ENG and WT hLIGHT mRNAs in combination with hIL-12 mRNA to stimulate primary human T cell proliferation. Human T cells were isolated from PBMCs from 1 healthy donor and stained with CellTrace Violet. HEK293 cells were transfected with hIL-12 mRNA (RNA-683) and WT hLIGHT (RNA-786) or ENG hLIGHT (RNA-1359) mRNA formulated in Lipofectamine MessengerMAX (0.5 ng each mRNA per 1000 cells). Control cells were transfected with noncoding mRNA control in the same way. Transfected HEK293 cells were cocultured with the T cells in a 1:5 ratio in the presence of 30 ng/mL or 100 ng/mL anti-CD3 antibody to mimic antigen specific TCR engagement for 4 days at 37° C., 5% CO2. CD8+ T cell proliferation was assessed by flow cytometry and the proliferation index was calculated. […] The results are shown in FIG. 10A, where ENG=engineered; HEK=human embryonic kidney; IL-12=interleukin-12; PBMC=peripheral blood mononuclear cell; WT=wildtype. The data in FIG. 10A represent mean±standard deviation (n=4). Statistical analysis was performed by unpaired student's t-test (P<0.05).

Data set [7] deals with T1, HVEM (Homo sapiens, UniProt Q92956).
T1 construct: host or cells: HVEM reporter cell line (not further described)
T1 sequence (Q92956 39-283): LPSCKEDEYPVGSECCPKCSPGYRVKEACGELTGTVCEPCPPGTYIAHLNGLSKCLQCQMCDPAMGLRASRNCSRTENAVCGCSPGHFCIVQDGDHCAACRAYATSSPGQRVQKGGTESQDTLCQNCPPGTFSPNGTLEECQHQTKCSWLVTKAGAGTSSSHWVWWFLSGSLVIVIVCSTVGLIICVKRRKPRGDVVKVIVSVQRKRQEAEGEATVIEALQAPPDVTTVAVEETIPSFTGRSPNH
Kind of data set: HVEM activation by LIGHT-transfected cells (HVEM reporter cell line). The format is cell-based. The source says:
FIGS. 1A and 1B depict the inhibition of the activation of membrane-stabilized LIGHT by soluble LIGHT.
FIG. 12 illustrates pre-blocking of soluble LIGHT in HVEM co-HEK transfected cells.
FIGS. 13A-13C are a comparison of HVEM activation with supernatant (blue) or cells (orange) for soluble LIGHT or membrane-stabilized LIGHT.
The incorporation of a modified membrane-stabilized LIGHT into a cancer immunotherapy allows for the effective targeting cancers, such as HPV-driven cancers.
[…] FIGS. 13A-13C show increased function of membrane-stabilized LIGHT on cells with HVEM reporter cell line and FIGS. 14A and 14B show increased cellular expression of membrane-stabilized LIGHT.

[8] abbreviates: Therapeutic dose in mouse: 3 doses 7 days apart, ~1-2 μg RNA IT or IM.
The mark [9] stands for this setting: High dose in rat: 4 doses in 2 weeks, 100 μg RNA IM.

Entries after “also recorded” stand apart in the source; their conditions may differ.

`CCCCCCCCCCN(CC(N)=O)C(=O)CN(CCCCCCCCCC)C(=O)CN(CCCCCCCCCC)C(=O)CN(CCCCCCCCCC)C(=O)CNCCO` [Compound 140, N-(2-amino-2-oxoethyl)-N-decyl-2-(N-decyl-2-(N-decyl-2-(N-decyl-2-((2-hydroxyethyl)amino)acetamido)acetamido)acetamido)acetamide]: the Body weight result in data set [1] (setting [8]) and in data set [3] was “No changes compared” throughout. Besides, the “Injection site reactions or other clinical observations” value in data set [1] (setting [8]), in data set [2] (setting [9]) and in data set [3] was “None observed” each time. Further, the tolerability entry in data set [1] (mouse efficacy studies) and in data set [2] (rat toxicology studies) was “well-tolerated” in each case. The Gross organ pathology result in data set [2] (setting [9]) and in data set [3] was “None observed” throughout. Also, the Clinical chemistries entry in data set [2] (High dose in rat: 4 doses in 2 weeks, 100 μg RNA IM, compared to control) was “No meaningful changes”; in data set [3] (compared to control), “No meaningful changes”. Moreover, the Hematology parameters result is given as “Some transient changes” in data set [2] (High dose in rat: 4 doses in 2 weeks, 100 μg RNA IM, return to baseline by D30) and “No changes compared” in data set [3] (compared to control). Also, the Serum cytokines entry in data set [2] (High dose in rat: 4 doses in 2 weeks, 100 μg RNA IM, subset of cytokines, return to baseline by D30) is on record as “Elevated levels in subset”; in data set [3] (compared to control), “No changes compared”.

B1: ENG hLIGHT: mRNA encoding human LIGHT with amino acids 66-92 replaced by 10 amino acid linker …; membrane-stabilized (nucleic acid)
chain: AGGCAUAGAAGUCGAGACACAGCCACUAAGUAAGCCACCAUGGAGGAGAGCGUGGUGCGGCCUAGCGUGUUCGUGGUCGACGGCCAGACCGACAUCCCCUUCACCAGACUGGGAAGAAGCCACAGAAGGCAGUCUUGCUCCGUGGCCAGAGUGGGCCUGGGCCUGCUCCUGCUGCUGAUGGGCGCUGGCCUGGCCGUGCAAGGCUGGUUCCUGCUGCAGCUGCACUGGCGGCUGGGCAGCAGCGCCUCUACCGAUAAGACCCACACCGUGAACCCUGCCGCCCACCUGACCGGCGCCAACAGCUCUCUGACCGGAUCUGGCGGACCUCUGCUGUGGGAGACACAGCUGGGCCUUGCUUUUCUGCGGGGCCUGAGCUACCACGACGGCGCUCUGGUGGUUACAAAGGCCGGCUACUACUACAUCUACAGCAAGGUGCAGCUGGGAGGCGUGGGUUGUCCACUGGGACUGGCCAGCACAAUCACACACGGCCUUUAUAAGCGGACCCCUAGAUACCCCGAGGAACUGGAACUGCUGGUCUCCCAGCAGAGCCCUUGCGGCAGAGCCACAAGCAGCAGCAGAGUGUGGUGGGACAGCUCAUUCCUGGGCGGCGUGGUGCAUCUGGAAGCCGGCGAGAAAGUGGUGGUCAGAGUGCUGGACGAGAGACUGGUGCGGCUGAGAGAUGGGACCCGCUCCUACUUCGGCGCCUUUAUGGUGUGAUAAGCGCCGCCUCCGGGACAGUGCACCCAGGCUGCGGCCCCUCCCCCGUCCUGGAGGUUCCCCAGCCCCACUUACCGCUUAAUGCGCCAAUAAACCAAUGAACGAAGCAAAAAAAAAAAAAAAAAAAAAAAAAAAAAAAAAAAAAAAAAAAAAAAAAAAAAAAAAAAAAAAAAAAAAAAAAAAAAAAAAAAAAAAAAAAAAAAAAAAAAAAAAAAAAAAAAAAAAAAAAAAAAAAAAAAAAAAAAAAAAAAAAAAAAAAAAAAAAAAAAAAAAAAAA
modifications: LIGHT ICD TM 1-66 RLG … LIGHT 92-240 1359, aka 1495 nt
notes: mRNA encoding human LIGHT with amino acids 66-92 replaced by 10 amino acid linker …; membrane-stabilized
In the case of B1, in data set [4], the soluble fraction entry is “significantly lower”. Also, the “cell-surface expression of membrane-bound protein” value in data set [4] (listed as ENG LIGHT mRNA) is “higher”; in data set [4] (listed as Engineered LIGHT), “significantly higher”. Moreover, the T-cell proliferation entry in data set [5] (listed as 1359) was “increase”; in data set [5] (listed as ENG LIGHT mRNA), “increased”. Also, the “CD8+ T cell proliferation and survival” value in data set [6] was “increased”. The “bioactivity on transfected cells” value in data set [7] (compared to WT LIGHT mRNA) was “higher”.

B2: 1356: mRNA encoding LIGHT ICD + TM (1-66) + (Gly4Ser)2 + LIGHT 92-240 (nucleic acid)
chain: AGGCAUAGAAGUCGAGACACAGCCACUAAGUAAGCCACCAUGGAAGAGUCUGUGGUCAGACCUAGCGUGUUCGUGGUCGACGGCCAGACCGACAUCCCCUUCACCAGACUGGGAAGAAGCCAUAGAAGACAGAGCUGCAGCGUGGCCAGAGUGGGCCUCGGCCUGCUGCUGCUGCUGAUGGGCGCUGGCCUGGCCGUGCAAGGCUGGUUCCUGCUGCAGCUGCACUGGCGGCUGGGCGGAGGCGGCGGCUCUGGCGGCGGAGGCUCCGUGAACCCCGCCGCCCACCUGACCGGCGCCAACAGCAGCCUGACAGGCAGCGGCGGUCCUCUGCUGUGGGAAACCCAGCUGGGACUGGCUUUUCUGAGAGGCCUGAGCUACCACGACGGCGCCCUGGUGGUGACCAAGGCCGGCUAUUACUACAUCUACAGCAAGGUGCAGCUGGGCGGCGUUGGAUGUCCUCUGGGCCUGGCUUCUACAAUCACCCACGGCCUGUACAAGCGGACCCCUAGAUACCCUGAGGAACUGGAGCUGCUGGUGUCCCAGCAGUCCCCAUGCGGCCGGGCCACAAGCUCUUCUAGAGUGUGGUGGGAUAGCAGCUUCCUGGGCGGAGUGGUGCACCUCGAGGCCGGAGAGAAAGUGGUGGUGCGGGUGCUGGAUGAGAGACUGGUUAGGCUGCGCGACGGCACACGGAGCUACUUCGGCGCCUUUAUGGUGUGAUAAGCGCCGCCUCCGGGACAGUGCACCCAGGCUGCGGCCCCUCCCCCGUCCUGGAGGUUCCCCAGCCCCACUUACCGCUUAAUGCGCCAAUAAACCAAUGAACGAAGCAAAAAAAAAAAAAAAAAAAAAAAAAAAAAAAAAAAAAAAAAAAAAAAAAAAAAAAAAAAAAAAAAAAAAAAAAAAAAAAAAAAAAAAAAAAAAAAAAAAAAAAAAAAAAAAAAAAAAAAAAAAAAAAAAAAAAAAAAAAAAAAAAAAAAAAAAAAAAAAAAAAAAAAAA
modifications: LIGHT ICD TM 1-66 RLG Gly4Ser 2 LIGHT 92-240 1356 nt
Regarding B2, in data set [5], the T-cell proliferation result is listed as “increase”.

B3: soluble LIGHT: Wild-type soluble human LIGHT (protein)
chain: MEESVVRPSVFVVDGQTDIPFTRLGRSHRRQSCSVARVGLGLLLLLMGAGLAVQGWFLLQLHWRLGEMVTRLPDGPAGSWEQLIQERRSHEVNPAAHLTGANSSLTGSGGPLLWETQLGLAFLRGLSYHDGALVVTKAGYYYIYSKVQLGGVGCPLGLASTITHGLYKRTPRYPEELELLVSQQSPCGRATSSSRVWWDSSFLGGVVHLEAGEEVVVRVLDERLVRLRDGTRSYFGAFMV
modifications: Human Wild Type LIGHT (786) aa
Take B3: the “effect of soluble LIGHT on HVEM activation/signaling by membrane-stabilized LIGHT” value in data set [7] (presence of soluble LIGHT) is “decreases; also recorded: competes for HVEM binding and reduces signaling”.
